“Also recorded” adds a separate entry of the source.
Tests used:
[1] = tested on: TNF-α-induced IκB phosphorylation in human HT-29 colon cancer cells; experiment: Inhibition of TNF-α-induced IκB phosphorylation in HT-29 cells; assay type: cell-based; settings: 24 h pre-treatment, 100 ng/mL TNF-α 5 min, HT-29, FIGS. 8 and 17; compared to Curcumin
Description: FIG. 8A) Immunodetection of IκB phosphorylation by TNF-α is shown.
One of the inflammatory pathways induced by TNF-α leads to the phosphorylation of IkB (FIG. 1), a key protein in inflammation. As expected, the addition of TNF-α to human HT-29 colon cancer cells triggered the phosphorylation of IkB (pIkB) (FIG. 8).
One of the inflammatory pathways induced by TNF-α leads to the phosphorylation IkB (see FIG. 1), a key protein in inflammation. It was observed that the addition of TNF-α to human HT-29 colon cancer cells triggered the phosphorylation of IkB (pIkB) (FIGS. 17A and 17B).

[2] = tested on: human HT-29 colorectal cancer cells; experiment: Time-course uptake by flow cytometry (cell-associated fluorescence); assay type: cell-based; settings: 5 μM, 37° C., HT-29 cells, FIG. 4B
Experimental: FIG. 4 is a series of charts illustrating higher and sustained uptake of KBC-201 (FIG. 4A). At the same concentration (5 μM), KBC-201 generates about half the fluorescence compared to free curcumin (Ex.: 488 nm, Em.: 530 nm) (FIG. 4B). Time-course uptake of KBC-201 (full line) and free curcumin (dotted line) in human HT-29 colorectal cancer cells. HT-29 cells were incubated at 37° C. with 5 μM of KBC-201 or curcumin at various times, trypsinized, washed, and cell-associated fluorescence uptake was quantified using a BD Accuri™ C6 flow cytometer.
(§1) The uptake of Curcumin conjugate or free Curcumin was measured as a function of time in human HT-29 colon cancer cells (FIG. 4). […] Indeed, the Curcumin conjugate (KBC-201) is less fluorescent by about 2-3 folds when compared to free Curcumin. […] The uptake of both KBC-201 and free Curcumin was next measured in the presence of Sortilin ligands (FIG. 5B). […] Taken together, data of the pharmacological inhibition using Sortilin ligands and the silencing of Sortlin expression confirm that the Curcumin conjugate is internalized via a Sortilin-dependent mechanism.

[3] = tested on: TNF-α-induced NFκB phosphorylation in human MDA-MB231 breast cancer cells; experiment: Inhibition of TNF-α-induced NFκB phosphorylation in MDA-MB231 cells; assay type: cell-based; settings: 24 h pre-treatment, 100 ng/mL TNF-α 5 min, MDA-MB231, FIGS. 9 and 18
Description: FIG. 9A) Immunodetection of phosphorylated NFκB by TNF-α is shown.
(§2) FIGS. 9 and 10 are other examples of the Curcumin conjugate (KBC-201)'s effect on the TNF-α-induced signaling pathways in two other cancer cell models.
Results presented in FIGS. 18A and 18B show now that the peptide alone (KBP-201) can reduce the TNF-α-induced NFκB phosphorylation by about 30%.
In FIG. 18A, immunodetection of NFκB phosphorylation by TNF-α is shown.

Sortilin receptor = target: T1, Sortilin receptor (Homo sapiens, UniProt Q99523); experiment: Sortilin-mediated uptake in HT-29 cells (siRNA silencing and competition with Sortilin ligands); assay type: cell-based; settings: 5 μM
T1 construct: Sortilin-deficient (siSortilin) HT-29 colorectal cancer cells; endogenous in cells; host or cells: HT-29 human colorectal cancer cells
T1 sequence (Q99523 78-831): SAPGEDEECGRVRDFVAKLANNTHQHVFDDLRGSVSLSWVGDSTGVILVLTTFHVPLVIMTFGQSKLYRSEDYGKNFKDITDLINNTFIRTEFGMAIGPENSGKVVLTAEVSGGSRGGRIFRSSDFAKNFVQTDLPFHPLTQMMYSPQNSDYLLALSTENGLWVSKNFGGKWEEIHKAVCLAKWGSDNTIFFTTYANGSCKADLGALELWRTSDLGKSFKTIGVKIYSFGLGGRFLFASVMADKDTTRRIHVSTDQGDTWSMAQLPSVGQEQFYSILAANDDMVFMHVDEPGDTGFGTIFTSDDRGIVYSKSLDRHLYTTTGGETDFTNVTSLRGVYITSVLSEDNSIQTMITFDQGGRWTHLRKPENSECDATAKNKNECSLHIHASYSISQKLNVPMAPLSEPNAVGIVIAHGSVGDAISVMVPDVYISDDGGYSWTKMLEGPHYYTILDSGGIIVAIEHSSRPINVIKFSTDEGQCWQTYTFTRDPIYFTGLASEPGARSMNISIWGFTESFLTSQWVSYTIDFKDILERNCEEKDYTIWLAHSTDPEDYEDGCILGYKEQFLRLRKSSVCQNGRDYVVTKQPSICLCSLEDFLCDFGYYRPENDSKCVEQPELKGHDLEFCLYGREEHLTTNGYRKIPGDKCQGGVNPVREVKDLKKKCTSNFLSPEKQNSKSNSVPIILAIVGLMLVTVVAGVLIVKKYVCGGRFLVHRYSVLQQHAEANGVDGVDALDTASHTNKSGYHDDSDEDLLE
Experimental: FIG. 5 is a series of charts showing Sortilin-mediated uptake of KBC-201 in human colorectal cancer cells, FIG. 5A) Uptake of 5 μM of KBC-201 or free curcumin were performed at 37° C. in control (siScrambled) or Sortilin-deficient (siSortilin) HT-29 colorectal cancer cells. After a 2 h incubation, cells were trypsinized to remove non-internalized products, washed 3-times with ice-cold PBS and cell-associated fluorescence was quantified using a BD Accuri™ C6 flow cytometer. […] Cell-associated fluorescence uptake was quantified using a BD Accuri™ C6 flow cytometer.
as §1

[4] = tested on: TNF-α-induced IκB phosphorylation in human SKOV3 ovarian cancer cells; experiment: Inhibition of TNF-α-induced IκB phosphorylation in SKOV3 cells; assay type: cell-based; settings: 24 h pre-treatment, 100 ng/mL TNF-α 5 min, SKOV3, FIG. 10
Description: FIG. 10A) Immunodetection of IκB phosphorylation by TNF-α is shown.
as §2

[5] = tested on: TNF-α-induced COX-2 expression in human HT-29 colon cancer cells; settings: 2 h pre-treatment, 10 ng/mL TNF-α 24 h, HT-29, FIG. 6; compared to free Curcumin
Experimental: (§3) Cells were pre-treated for 2 h with indicated compounds in serum-free medium before the addition of 10 ng/mL TNF-α for 24 h. Cells were lysed and the levels protein expression of COX-2 were monitored by immunoblotting. […] For each sample, the COX-2 level was corrected for GAPDH (a loading control) and normalized to those seen in TNF-α control (value=100%).
as §3, with “the” for “the levels”, “expression levels” for “expression”

[6] = Stability at room temperature followed by absorbance over time; settings: FIG. 11
Description: FIG. 11 is a graph showing absorbance of Curcumin conjugates and free Curcumin.

Acetyl-YK(curcumin)SLRRK(curcumin)APRWDAPLRDPALRQLL (YKSLRRKAPRWDAPLRDPALRQLL) [KBC-201]
Inhibition of TNF-α-induced IkB phosphorylation [1]: stronger inhibition
Uptake over time (cell-associated fluorescence) [2]: higher and sustained uptake over time
Antagonism of TNF-α-induced phosphorylation of pro-inflammatory proteins (NFκB) [3]: more potent than free Curcumin
Uptake when Sortilin expression is reduced by siRNA (Sortilin receptor; 2 h, 37° C., siSortilin vs siScrambled HT-29 cells, FIG. 5A): strongly inhibited; also recorded: reduces KBC-201 uptake
Uptake in the presence of Sortilin ligands (Sortilin receptor; excess free peptide (50 μM), neurotensin (10 μM) or progranulin (1 nM), HT-29 cells, FIG. 5B): inhibited the uptake; also recorded: inhibit the uptake of KBC-201
Antagonism of TNF-α-induced phosphorylation of pro-inflammatory proteins (IκB) [4]: more potent than free Curcumin
Inhibition of TNFα-induced COX-2 expression [5]: stronger inhibition
Stability (absorbance over time) [6]: more stable

From patent publication US20200157151A1, “PEPTIDE COMPOUNDS, CONJUGATE COMPOUNDS AND USES THEREOF FOR TREATING INFLAMMATORY DISEASES” (TRANSFERT PLUS, S.E.C., priority 2017, published 2020)
